Values of other authors as cited in patent US20090074668A1, “Vldlr-/- mouse models and related methods” (priority 2007, published 2009).

Tested on: VEGF
Details: intraocular administration; in vitro and in vivo

Q: For `CC1(C)O[C@@H]2C[C@H]3[C@@H]4CCC5=CC(=O)C=C[C@]5(C)[C@@]4(F)[C@@H](O)C[C@]3(C)[C@]2(C(=O)CO)O1` [Kenalog], which “effect on VEGF levels” value is on record?
A: Its value is “reduce VEGF levels”.
